Measured values reported in publication PMC9182007, “Statistical Methods in the Study of Protein Binding and Its Relationship to Drug Bioavailability in Breast Milk” (Molecules, 2022).
Like-named read-outs stand apart in the source and are kept apart here.

What was measured:
[1] = HPLC on immobilized artificial membrane column (HPLCIAM); format: physicochemical; conditions: for log kIAM / kIAM: Table S9, external group; for log k IAM: Table S5, IAM column, pH 7.4; for k IAM: Table S5, retention factor, IAM column, phosphate buffer pH 7.4/acetonitrile 80:20
plasma protein = conditions: ref DrugBank [7], cited from earlier work
[2] = biological target: T1, bovine serum albumin (BSA) (Bos taurus, UniProt P02769); experiment: RP TLC on plates impregnated with bovine serum albumin; format: binding; conditions: for RP (Rf value from the RP plate impregnated with 2 mg/mL BSA solution): Table S8, external group; for RP (Rf, BSA-impregnated RP plate): Table S4, RP plate impregnated with 2 mg/mL BSA, pH 7.4 mobile phase
T1 construct: purchased Sigma Aldrich
T1 sequence (P02769 25-607): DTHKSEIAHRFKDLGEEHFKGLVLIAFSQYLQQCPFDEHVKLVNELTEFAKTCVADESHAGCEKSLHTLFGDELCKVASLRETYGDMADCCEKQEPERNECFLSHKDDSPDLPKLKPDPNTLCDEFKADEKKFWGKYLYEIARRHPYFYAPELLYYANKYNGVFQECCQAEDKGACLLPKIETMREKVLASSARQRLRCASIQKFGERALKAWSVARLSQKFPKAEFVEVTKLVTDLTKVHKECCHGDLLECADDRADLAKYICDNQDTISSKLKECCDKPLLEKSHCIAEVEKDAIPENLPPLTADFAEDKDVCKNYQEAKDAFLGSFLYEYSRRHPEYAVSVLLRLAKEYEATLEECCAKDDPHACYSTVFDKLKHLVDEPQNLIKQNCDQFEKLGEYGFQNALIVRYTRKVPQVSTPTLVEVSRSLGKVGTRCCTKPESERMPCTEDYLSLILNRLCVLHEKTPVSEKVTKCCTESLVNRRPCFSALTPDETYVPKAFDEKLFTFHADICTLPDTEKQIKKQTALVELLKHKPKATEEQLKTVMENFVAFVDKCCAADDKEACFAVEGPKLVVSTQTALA
Source text: (§1) Chromatographic descriptors were obtained in experiments, thin layer chromatography in normal (NP TLC) and reversed mode (RP TLC). The stationary phase was modified with bovine serum albumin (BSA). TLC was the source of retention factor (Rf) values, denoted in statistical models as NP and RP.
(§2) For TLC chromatography, glass plates 20 × 20 cm from Merck, covered with silica gel with the addition of a fluorescent indicator, were used. Normal phase (NP) plates were used with standard Merck TLC Silica gel 60 F254 plates, while in reverse phase (RP) silanized plates RP-2: Merck TLC Silica gel 60 RP-2 F254 were used.
(§3) The stationary phase of the plates, both NP and RP, was modified with an aqueous solution of bovine serum albumin purchased from Sigma Aldrich (bovine serum albumin, lyophilized powder).
(§4) The impregnation of the plates was carried out with a 2 mg/mL solution applied to the surface using a Desaga SG 1 hand sprayer; the plates were then air dried. […] Normal and reversed phase thin layer chromatography (NP TLC and RP TLC respectively) was performed using silica-gel-coated glass plates. Half of them were covered with 2 mg/mL bovine serum albumin solution and half remained pure.
(§5) The mobility of the compounds was also determined on the plates with no protein as a modifier. […] The acetate buffer (20 mM) was prepared by dissolving 1.54 g of ammonium acetate in 1 L of distilled water. The pH was then adjusted with a concentrated ammonia solution using a pH meter. The plates were developed in standard, vertical chromatographic chambers, each time using 100 mL of the mobile phase, after the chamber was previously saturated with solvent vapors for approximately 1 h.
(§6) The unfolded-protein-impregnated plates and the control plates were scanned with a Desaga CD 60 densitometer. The values of the delay factor (Rf) were collected, i.e., the ratio of the distance traveled by the substance to be analyzed to the distance traveled through the front of the mobile phase. […] The experiment was repeated (for both BSA-coated and control plates) and the Rf values pooled are the mean of both series of experiments.

[3] = cited from earlier work
[4] = RP TLC on non-impregnated control plates; format: physicochemical; conditions: for CRP (Rf value from the non-impregnated RP plate, control): Table S8, external group; for CRP (Rf, control RP plate): Table S4, non-impregnated RP plate, acetonitrile/acetate buffer pH 7.4/methanol 60:20:20
[5] = biological target: T1, bovine serum albumin (BSA); experiment: NP TLC on plates impregnated with bovine serum albumin; format: binding; conditions: for NP (Rf value from the NP plate impregnated with 2 mg/mL BSA solution): Table S8, external group; for NP (Rf, BSA-impregnated NP plate): Table S3, NP plate impregnated with 2 mg/mL BSA, pH 7.4 mobile phase
Source text: as §1, §2, §3, §4, §5, §6

[6] = NP TLC on non-impregnated control plates; format: physicochemical; conditions: for CNP (Rf value from the non-impregnated NP plate, control): Table S8, external group; for CNP (Rf, control NP plate): Table S3, non-impregnated NP plate, acetonitrile/acetate buffer pH 7.4/methanol 60:20:20
Procedure: as §2
Normal and reversed phase thin layer chromatography (NP TLC and RP TLC respectively) was performed using silica-gel-coated glass plates. Half of them were covered with 2 mg/mL bovine serum albumin solution and half remained pure.
as §5, §6

[7] = biological target: T2, human serum albumin (HSA) (Homo sapiens, UniProt P02768); conditions: for k HSA: Table S5, retention factor, HSA column, pH 7.4, 25 degrees Celsius
T2 sequence (P02768 25-609): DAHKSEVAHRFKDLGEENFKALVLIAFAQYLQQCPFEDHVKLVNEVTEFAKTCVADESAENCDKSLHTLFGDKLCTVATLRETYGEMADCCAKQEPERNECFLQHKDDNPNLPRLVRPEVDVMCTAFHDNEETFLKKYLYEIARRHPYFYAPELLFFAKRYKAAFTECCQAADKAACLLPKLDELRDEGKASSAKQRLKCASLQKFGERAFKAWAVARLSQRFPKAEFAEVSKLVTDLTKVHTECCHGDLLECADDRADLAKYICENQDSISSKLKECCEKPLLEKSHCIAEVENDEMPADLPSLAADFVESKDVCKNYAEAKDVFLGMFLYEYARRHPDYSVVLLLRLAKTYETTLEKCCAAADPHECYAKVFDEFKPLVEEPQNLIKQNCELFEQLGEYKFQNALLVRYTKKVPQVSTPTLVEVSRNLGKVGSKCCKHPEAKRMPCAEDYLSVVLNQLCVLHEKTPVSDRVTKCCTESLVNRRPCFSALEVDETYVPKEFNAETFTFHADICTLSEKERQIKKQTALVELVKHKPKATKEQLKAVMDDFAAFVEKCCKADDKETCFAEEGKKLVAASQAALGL
Procedure: (§7) High performance liquid chromatography was performed using immobilized human serum albumin column (HPLCHSA) and immobilized artificial membrane (HPLCIAM). HPLC was the source of the log k values (logarithm of retention factor), log kHSA and log kIAM.
(§8) High performance liquid chromatography was performed using a chromatography column with immobilized human serum albumin. The assay was performed on a Perkin Elmer Series 200 instrument connected to a UV-VIS spectrometer as detector. The analytical wavelength was the same for all compounds at 210 nm. […] The acetate buffer was prepared by dissolving 0.77 g of ammonium acetate in 1 L of distilled water. The pH was then adjusted with a concentrated ammonia solution using a pH meter.
(§9) The phase flow through the system was set to 0.9 mL/min as recommended by the column manufacturer. The solutions were delivered to the column using an autosampler syringe, the injection size was 10 µL. Since the column could not be thermostated, the room was kept at a constant temperature of 25 degrees Celsius.
(§10) Chromatographic data (retention coefficient, k, and derivative, log k) were obtained with TotalChrom software connected to an HPLC instrument. […] The experiment was then repeated and the collected retention rates were the mean values of both series.

[8] = ref DrugBank [7], cited from earlier work
[9] = biological target: T2, human serum albumin (HSA); experiment: in vitro; conditions: immobilized hsa column, pH 7.4
Procedure: as §7, §8, §9, §10

[10] = Milk-to-plasma (M/P) drug concentration ratio obtained in vivo, from literature; parameters: species or system human; conditions: Table S1, scale of drug penetration into milk 1-4
[11] = Table S6, external group (n = 38), given as fraction
[12] = Table S6, external group (n = 38)
[13] = Table S6, external group, coded 1/0
[14] = human, immobilized hsa column, pH 7.4
[15] = Table S1, plasma protein binding given as fraction

Structure (SMILES) | log kIAM [1] | PB (plasma protein; [11]) | RP (Rf value from the RP plate impregnated with 2 mg/mL BSA solution) [2] | M/P [3, 12] | CRP (Rf value from the non-impregnated RP plate, control) [4] | NP (Rf value from the NP plate impregnated with 2 mg/mL BSA solution) [5] | CNP (Rf value from the non-impregnated NP plate, control) [6] | kHSA ([7]; Table S9, external group) | CNS+/- [8, 13] | kIAM [1] | chromatographic logD [9] | also measured
CCCCN1CCCCC1C(=O)Nc1c(C)cccc1C (centres unmarked) [bupivacaine] | 0.48 | 0.95 | 0.75 | 0.37 | 0.74 | 0.67 | 0.67 | 1.18 | 1 | – | – | log kHSA ([7]; Table S9, external group): 0.07
CN(C)CCC=C1c2ccccc2COc2ccccc21 [doxepin] | 0.45 | 0.76 | 0.54 | 1.37 | – | 0.31 | 0.30 | 4.25 | 1 | 2.81 | – | log kHSA [7, 14]: 0.63
CN1CCC[C@@H]1Cc1c[nH]c2ccc(CCS(=O)(=O)c3ccccc3)cc12 [eletriptan] | 0.55 | – | – | 0.25 | – | – | – | 3.78 | 1 | 3.57 | – | log kHSA [7, 14]: 0.58
CC[C@@H](CO)NCCN[C@@H](CC)CO [ethambutol] | 0.34 | – | 0.95 | 1.00 | 0.97 | 0.21 | 0.19 | 1.73 | 0 | 2.18 | – | log kHSA [7, 14]: 0.24
CCC(C)n1ncn(-c2ccc(N3CCN(c4ccc(OCC5COC(Cn6cncn6)(c6ccc(Cl)cc6Cl)O5)cc4)CC3)cc2)c1=O (centres unmarked) [itraconazole] | 0.79 | 1.00 | 0.84 | 1.14 | 0.86 | 0.97 | 0.96 | 9.65 | 0 | 6.15 | 0.98 | –
O=C(c1ccccc1)c1ccc2n1CCC2C(=O)O (centres unmarked) [ketorolac] | 0.38 | 0.99 | 0.96 | 0.03 | 0.96 | 0.91 | 0.92 | 9.65 | 1 | 2.39 | 0.98 | –
CN1CCC(=C2c3ccccc3CC(=O)c3sccc32)CC1 [ketotifen] | – | – | – | – | – | – | – | – | – | – | 0.77 | log k IAM [1]: 1.34; k IAM [1]: 22.04; PB (plasma protein; [15]): 0.75; RP (Rf, BSA-impregnated RP plate) [2]: 0.74; CRP (Rf, control RP plate) [4]: 0.75; NP (Rf, BSA-impregnated NP plate) [5]: 0.36; CNP (Rf, control NP plate) [6]: 0.34; k HSA [7]: 5.83; CNS+/- ([8]; Table S1, coded 1/0): 1
CC[C@@H](C(N)=O)N1CCCC1=O [levetiracetam] | 0.21 | 0.10 | 0.92 | 1.00 | 0.92 | 0.92 | 0.92 | 0.07 | 1 | 1.62 | – | log kHSA ([7]; Table S9, external group): -1.16
CCC[C@@H]1C[C@@H](C(=O)N[C@@H]([C@H]2O[C@H](SC)[C@H](O)[C@@H](O)[C@H]2O)[C@@H](C)O)N(C)C1 [lincomycin] | 0.59 | 0.70 | – | 0.15 | – | 0.91 | 0.91 | 0.82 | 0 | 3.89 | -0.08 | –
Nc1ccc(O)c(C(=O)O)c1 [mesalazine] | 0.11 | 0.43 | 0.97 | 2.69 | 0.99 | – | – | 0.18 | 0 | 1.28 | -0.73 | –
CCOC(=O)C1=C(C)NC(C)=C(C(=O)OC)C1c1cccc([N+](=O)[O-])c1 (centres unmarked) [nitrendipine] | 0.47 | 0.99 | 0.86 | 0.30 | 0.86 | 0.97 | 0.97 | 3.55 | 0 | 2.98 | – | log kHSA ([7]; Table S9, external group): 0.55
NC(=O)N1c2ccccc2CC(=O)c2ccccc21 [oxcarbamazepine] | 0.35 | 0.40 | 0.91 | 0.50 | 0.91 | 0.90 | 0.91 | 0.40 | 1 | 2.26 | – | log kHSA ([7]; Table S9, external group): -0.40
C[C@]12C=CC(=O)C=C1CC[C@@H]1[C@@H]2[C@@H](O)C[C@@]2(C)[C@H]1CC[C@]2(O)C(=O)CO [prednizolone] | – | – | – | – | – | – | – | – | – | – | – | log k IAM [1]: 0.45; k IAM [1]: 2.84; PB (plasma protein; [15]): 0.9; RP (Rf, BSA-impregnated RP plate) [2]: 0.88; M/P ([3]; Table S1, milk/plasma drug concentration ratio, in vivo): 0.13; CRP (Rf, control RP plate) [4]: 0.87; NP (Rf, BSA-impregnated NP plate) [5]: 0.94; CNP (Rf, control NP plate) [6]: 0.94; log k HSA ([7]; Table S5, HSA, pH 7.4): -0.28; k HSA [7]: 0.52; M/P code [10]: 1 (Code 1 corresponds to drugs with an M/P value <0.40—completely safe)
CC(N)C12CC3CC(CC(C3)C1)C2 (centres unmarked) [rimantadine] | 0.28 | – | 0.95 | 2.00 | 0.95 | 0.92 | 0.92 | 0.16 | 1 | 1.91 | – | –
CCCc1nn(C)c2c(=O)[nH]c(-c3cc(S(=O)(=O)N4CCN(C)CC4)ccc3OCC)nc12 [sildenafil] | – | – | – | – | – | – | – | – | – | – | 0.21 | log k IAM [1]: 1.15; k IAM [1]: 14.26; PB (plasma protein; [15]): 0.96; RP (Rf, BSA-impregnated RP plate) [2]: 0.76; CRP (Rf, control RP plate) [4]: 0.77; NP (Rf, BSA-impregnated NP plate) [5]: 0.67; CNP (Rf, control NP plate) [6]: 0.69; k HSA [7]: 1.62; CNS+/- ([8]; Table S1, coded 1/0): 1
